Several values for one entry are separate records, joined by “and”; a condition that tells them apart may be missing. Identical values can stand only once. Toxic doses and inconclusive results are not listed. How the source made its calls: active means survival T/C of 150% or more; inactive means T/C below 125% in these data.
Tested on: B6C3F1 mice, ip Sarcoma M5076, median survival T/C
Experiment: NCI In Vivo Anticancer Drug Screen. Data for tumor model Sarcoma M5076 (intraperitoneal) in B6C3F1 mice
Conditions: endpoint: median survival time, higher = longer survival
In short: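 Tumour cells were transplanted into mice, compound or vehicle was given, survival of both groups was followed, and the treated figure was expressed over the control figure.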

[1] = dose: 37.5 mg/kg/injection, schedule: Q04DX004 (ip), vehicle: water
[2] = dose: 75.0 mg/kg/injection, schedule: Q04DX004 (ip), vehicle: water
[3] = dose: 150.0 mg/kg/injection, schedule: Q04DX004 (ip), vehicle: water
[4] = dose: 300.0 mg/kg/injection, schedule: Q04DX004 (ip), vehicle: water
[5] = dose: 600.0 mg/kg/injection, schedule: Q04DX004 (ip), vehicle: water
[6] = dose: 12.5 mg/kg/injection, schedule: Q04DX004 (ip), vehicle: saline with Tween-80
[7] = dose: 25.0 mg/kg/injection, schedule: Q04DX004 (ip), vehicle: saline with Tween-80
[8] = dose: 50.0 mg/kg/injection, schedule: Q04DX004 (ip), vehicle: saline with Tween-80
[9] = dose: 100.0 mg/kg/injection, schedule: Q04DX004 (ip), vehicle: saline with Tween-80
[10] = dose: 200.0 mg/kg/injection, schedule: Q04DX004 (ip), vehicle: saline with Tween-80
[11] = dose: 400.0 mg/kg/injection, schedule: Q04DX004 (ip), vehicle: saline with Tween-80
[12] = dose: 12.5 mg/kg/injection, schedule: Q04DX004 (ip), vehicle: water
[13] = dose: 25.0 mg/kg/injection, schedule: Q04DX004 (ip), vehicle: water
[14] = dose: 50.0 mg/kg/injection, schedule: Q04DX004 (ip), vehicle: water

Measured: T/C

CN1C(=O)C2CC(O)C(SC3CC4C(=O)N(C)C(=O)C4CC3O)CC2C1=O (centres undefined)
inactive: [1] 101 % of control | [2] 105 % of control | [3] 102 % of control | [4] 97 % of control | [5] 107 % of control

COc1cc2oc3c(C)c(=O)cc4oc(-c5ccccc5)cc(c2c2c1CCC(c1ccccc1)O2)c43 (centres undefined)
inactive: dose: 1.75 mg/kg/injection, schedule: Q04DX004 (ip), vehicle: Klucel (hydroxypropylcellulose) (HPC) 109 % of control | dose: 3.5 mg/kg/injection, schedule: Q04DX004 (ip), vehicle: Klucel (hydroxypropylcellulose) (HPC) 102 % of control | dose: 7.0 mg/kg/injection, schedule: Q04DX004 (ip), vehicle: Klucel (hydroxypropylcellulose) (HPC) 102 % of control | [6] 98 % of control | dose: 14.0 mg/kg/injection, schedule: Q04DX004 (ip), vehicle: Klucel (hydroxypropylcellulose) (HPC) 109 % of control | [7] 98 % of control | dose: 28.0 mg/kg/injection, schedule: Q04DX004 (ip), vehicle: Klucel (hydroxypropylcellulose) (HPC) 97 % of control | [8] 99 % of control and 100 % of control | [9] 94 % of control and 96 % of control | [10] 96 % of control and 103 % of control | [11] 87 % of control | dose: 800.0 mg/kg/injection, schedule: Q04DX004 (ip), vehicle: saline with Tween-80 110 % of control

CCC(CC)COC(=O)c1ccccc1C(=O)OCC(CC)CC
inactive: dose: 75.0 mg/kg/injection, schedule: Q04DX004 (ip), vehicle: saline with Tween-80 102 % of control | dose: 150.0 mg/kg/injection, schedule: Q04DX004 (ip), vehicle: saline with Tween-80 102 % of control | dose: 300.0 mg/kg/injection, schedule: Q04DX004 (ip), vehicle: saline with Tween-80 104 % of control | dose: 600.0 mg/kg/injection, schedule: Q04DX004 (ip), vehicle: saline with Tween-80 106 % of control | dose: 1200.0 mg/kg/injection, schedule: Q04DX004 (ip), vehicle: saline with Tween-80 114 % of control

OC1OC2COC(c3ccccc3)OC2C(O)C1O (centres undefined)
inactive: dose: 18.75 mg/kg/injection, schedule: Q04DX004 (ip), vehicle: water 109 % of control | [1] 89 % of control | [2] 96 % of control | [3] 101 % of control | [4] 98 % of control | [5] 94 % of control

[Cl][Pt][Cl].[NH-]C(CO)C(=O)O (centres undefined)
inactive: [12] 97 % of control | [13] 111 % of control | [14] 111 % of control

O=NNc1ccc2cccnc2n1
inactive: [12] 104 % of control | [13] 116 % of control
active: [14] 151 % of control | dose: 100.0 mg/kg/injection, schedule: Q04DX004 (ip), vehicle: water 151 % of control and 161 % of control | dose: 200.0 mg/kg/injection, schedule: Q04DX004 (ip), vehicle: water 174 % of control

CC(O)C1(O)C(O)CC(OC2c3cc4c(c(O)c3[C@@H]3C[C@@]2(C)OC32C=c3cc[nH]c3=N2)C(=O)c2cccc(O)c2C4=O)OC1C (some centres undefined)
inactive: [6] 104 % of control | [7] 104 % of control | [8] 92 % of control

N#CC1C(=O)NC(=S)NC1c1ccco1 (centres undefined)
inactive: dose: 50.0 mg/kg/injection, schedule: Q04DX004 (ip), vehicle: Klucel (hydroxypropylcellulose) (HPC) 98 % of control | dose: 100.0 mg/kg/injection, schedule: Q04DX004 (ip), vehicle: Klucel (hydroxypropylcellulose) (HPC) 100 % of control

N=C(N)c1ccc(N=NNc2ccc(C(=N)N)cc2)cc1
inactive: [7] 96 % of control | [8] 97 % of control

COc1cc2cc3c(c(O)c2c(O)c1/C=C/C(C)C)C(=O)CC(C)(OC(C)=O)C3 (centres undefined)
inactive: dose: 0.62 mg/kg/injection, schedule: Q01DX009 (ip), vehicle: Klucel (hydroxypropylcellulose) (HPC) 117 % of control | dose: 0.63 mg/kg/injection, schedule: Q01DX009 (ip), vehicle: Klucel (hydroxypropylcellulose) (HPC) 98 % of control and 104 % of control and 106 % of control | dose: 0.63 mg/kg/injection, schedule: Q04DX004 (ip), vehicle: Klucel (hydroxypropylcellulose) (HPC) 113 % of control | dose: 1.25 mg/kg/injection, schedule: Q04DX004 (ip), vehicle: Klucel (hydroxypropylcellulose) (HPC) 121 % of control | dose: 2.5 mg/kg/injection, schedule: Q04DX004 (ip), vehicle: Klucel (hydroxypropylcellulose) (HPC) 123 % of control | dose: 3.6 mg/kg/injection, schedule: Q04DX004 (ip), vehicle: Klucel (hydroxypropylcellulose) (HPC) 106 % of control | dose: 6.0 mg/kg/injection, schedule: Q04DX004 (ip), vehicle: Klucel (hydroxypropylcellulose) (HPC) 110 % of control | dose: 10.0 mg/kg/injection, schedule: Q04DX004 (ip), vehicle: Klucel (hydroxypropylcellulose) (HPC) 118 % of control | dose: 16.67 mg/kg/injection, schedule: Q04DX004 (ip), vehicle: Klucel (hydroxypropylcellulose) (HPC) 117 % of control

COC1C(O)CC(OC2CC(Oc3cc4cc5c(c(O)c4c(O)c3C)C(=O)[C@@H](OC3CC(OC4CC(OC6CC(C)(O)C(OC(C)=O)C(C)O6)C(O)C(C)O4)C(O)C(C)O3)[C@H]([C@H](OC)C(=O)[C@@H](O)[C@@H](C)O)C5)OC(C)C2OC(C)=O)OC1C (some centres undefined)
inactive: dose: 37.5 micrograms/kg/injection, schedule: Q04DX004 (ip), vehicle: water 110 % of control | dose: 75.0 micrograms/kg/injection, schedule: Q04DX004 (ip), vehicle: water 111 % of control

CCn1c2ccccc2c2cc(N)c(N=Nc3ccc(N(C)C)cc3)cc21
inactive: dose: 32.82 mg/kg/injection, schedule: Q04DX004 (ip), vehicle: Klucel (hydroxypropylcellulose) (HPC) 111 % of control | dose: 65.63 mg/kg/injection, schedule: Q04DX004 (ip), vehicle: Klucel (hydroxypropylcellulose) (HPC) 93 % of control | dose: 131.25 mg/kg/injection, schedule: Q04DX004 (ip), vehicle: Klucel (hydroxypropylcellulose) (HPC) 97 % of control | dose: 262.5 mg/kg/injection, schedule: Q04DX004 (ip), vehicle: Klucel (hydroxypropylcellulose) (HPC) 93 % of control | dose: 525.0 mg/kg/injection, schedule: Q04DX004 (ip), vehicle: Klucel (hydroxypropylcellulose) (HPC) 90 % of control

CC1=NN(c2ccccc2)C(=O)C1=Nc1c(C)[nH]n(-c2ccccc2)c1=O
inactive: [8] 89 % of control | [9] 92 % of control | [10] 97 % of control | [11] 94 % of control

CC[C@@]1(O)C(=O)OCc2c1cc1n(c2=O)Cc2cc3c(N)cccc3nc2-1
active: dose: 1.0 mg/kg/injection, schedule: Q04DX004 (ip), vehicle: saline with Tween-80 164 % of control and 168 % of control | dose: 2.0 mg/kg/injection, schedule: Q04DX004 (ip), vehicle: saline with Tween-80 208 % of control | dose: 4.0 mg/kg/injection, schedule: Q04DX004 (ip), vehicle: saline with Tween-80 177 % of control
inactive: dose: 0.25 mg/kg/injection, schedule: Q04DX004 (ip), vehicle: saline with Tween-80 121 % of control

Clc1cc2c(nn1)Nc1ccccc1S2
inactive: [8] 100 % of control | [9] 95 % of control | [10] 95 % of control

CO[C@@]12[C@@H]3N[C@@H]3CN1C1=C(C(=O)C(NCCc3ccccn3)=C(C)C1=O)[C@@H]2COC(N)=O
inactive: dose: 3.2 mg/kg/injection, schedule: Q04DX004 (ip), vehicle: saline with Tween-80 112 % of control | dose: 5.4 mg/kg/injection, schedule: Q04DX004 (ip), vehicle: saline with Tween-80 122 % of control
active: [7] 172 % of control and 197 % of control | dose: 42.0 mg/kg/injection, schedule: Q04DX004 (ip), vehicle: saline with Tween-80 200 % of control | dose: 69.0 mg/kg/injection, schedule: Q04DX004 (ip), vehicle: saline with Tween-80 280 % of control

C/C=C/C(C)C1OC1(C)C(O)C1COC(=O)C(O)C(OC)C(C)C(=O)C(C)C(O)/C(C)=C/C(C)C(=O)CC(O)C(C)C1=O (centres undefined)
inactive: dose: 2.5 micrograms/kg/injection, schedule: Q04DX004 (ip), vehicle: saline 97 % of control | dose: 5.0 micrograms/kg/injection, schedule: Q04DX004 (ip), vehicle: saline 91 % of control | dose: 10.0 micrograms/kg/injection, schedule: Q04DX004 (ip), vehicle: saline 102 % of control | dose: 20.0 micrograms/kg/injection, schedule: Q04DX004 (ip), vehicle: saline 96 % of control

Cn1cnc([N+](=O)[O-])c1SCC(=O)O
inactive: dose: 75.0 mg/kg/injection, schedule: Q04DX004 (ip), vehicle: Klucel (hydroxypropylcellulose) (HPC) 92 % of control | dose: 150.0 mg/kg/injection, schedule: Q04DX004 (ip), vehicle: Klucel (hydroxypropylcellulose) (HPC) 101 % of control | dose: 300.0 mg/kg/injection, schedule: Q04DX004 (ip), vehicle: Klucel (hydroxypropylcellulose) (HPC) 98 % of control | dose: 600.0 mg/kg/injection, schedule: Q04DX004 (ip), vehicle: Klucel (hydroxypropylcellulose) (HPC) 93 % of control | dose: 1200.0 mg/kg/injection, schedule: Q04DX004 (ip), vehicle: Klucel (hydroxypropylcellulose) (HPC) 92 % of control
